# According to paper PMC6504913 (Angewandte Chemie (International ed. in English), 2018):
# Columns and labels:
# [1] = type: physicochemical; conditions: pH 7.4 aqueous buffer
# RAW 264.7 cells = assay: LPS-induced NO2^– formation in macrophage RAW 264.7 cells; type: cell-based; conditions: 25 μM pretreatment 6 h, then LPS 1.0 μg/mL 18 h
Compound,stability in aqueous buffer (PNA formation) [1],effect on LPS-induced NO2^– production (RAW 264.7 cells)
n-butylthiocarbamate [n-BuTCM-1],stable,–
C1COCCN1.COc1ccc(P(=S)(S)N2CCOCC2)cc1 (centres unmarked) [GYY4137],–,less pronounced effect
